In ChEMBL document CHEMBL5543144, “Discovery of a Novel Potent Tetrazole Antifungal Candidate with High Selectivity and Broad Spectrum” (J Med Chem, 2024):
Converted amounts (≈) assume the structure as drawn. The source made the active and inactive calls. No cut-off for these calls is given here.

How the values were obtained:
Candida albicans [1] = assay: Antifungal activity against Candida albicans SC5314 assessed as inhibition of fungal growth incubated for 24 hrs by CLSI protocol based microbroth dilution method; assay type: functional
Candida parapsilosis = assay: Antifungal activity against Candida parapsilosis 22019 assessed as inhibition of fungal growth incubated for 24 hrs by CLSI protocol based microbroth dilution method; assay type: functional; conditions: Lodderomyces parapsilosis
Candida tropicalis [2] = assay: Antifungal activity against Candida tropicalis 2718 assessed as inhibition of fungal growth incubated for 24 hrs by CLSI protocol based microbroth dilution method; assay type: functional
Pichia kudriavzevii [3] = assay: Antifungal activity against Candida krusei 4946 assessed as inhibition of fungal growth incubated for 24 hrs by CLSI protocol based microbroth dilution method; assay type: functional
Nakaseomyces glabratus = assay: Antifungal activity against Candida glabrata 537 assessed as inhibition of fungal growth incubated for 48 hrs by CLSI protocol based microbroth dilution method; assay type: functional
Cryptococcus neoformans [4] = assay: Antifungal activity against Cryptococcus neoformans H99 assessed as inhibition of fungal growth incubated for 72 hrs by CLSI protocol based microbroth dilution method; assay type: functional
Aspergillus fumigatus = assay: Antifungal activity against Aspergillus fumigatus 7544 assessed as inhibition of fungal growth incubated for 48 hrs by CLSI protocol based microbroth dilution method; assay type: functional
[Candida] auris [5] = Antifungal activity against fluconazole resistant Candida auris 887 assessed as inhibition of fungal growth incubated for 48 hrs by CLSI protocol based microbroth dilution method; assay type: functional; conditions: Candidozyma auris
[Candida] auris [6] = Antifungal activity against fluconazole resistant Candida auris 888 assessed as inhibition of fungal growth incubated for 48 hrs by CLSI protocol based microbroth dilution method; assay type: functional; conditions: Candidozyma auris
[Candida] auris [7] = Antifungal activity against fluconazole resistant Candida auris D12 assessed as inhibition of fungal growth incubated for 48 hrs by CLSI protocol based microbroth dilution method; assay type: functional; conditions: Candidozyma auris
[Candida] auris [8] = Antifungal activity against fluconazole resistant Candida auris BS12372 assessed as inhibition of fungal growth incubated for 48 hrs by CLSI protocol based microbroth dilution method; assay type: functional; conditions: Candidozyma auris
[Candida] auris [9] = Antifungal activity against fluconazole resistant Candida auris 789 assessed as inhibition of fungal growth incubated for 48 hrs by CLSI protocol based microbroth dilution method; assay type: functional; conditions: Candidozyma auris
[Candida] auris [10] = Antifungal activity against fluconazole resistant Candida auris 791 assessed as inhibition of fungal growth incubated for 48 hrs by CLSI protocol based microbroth dilution method; assay type: functional; conditions: Candidozyma auris
Candida albicans [11] = assay: Antifungal activity against Candida albicans SC5314 assessed as inhibition of fungal growth at 0.0156 ug/ml incubated for 24 hrs by plate reader analysis; assay type: functional, organism-based; conditions: dose 0.0156 µg/ml
Cryptococcus neoformans [12] = assay: Antifungal activity against Cryptococcus neoformans H99 assessed as inhibition of fungal growth at 0.125 ug/ml incubated for 48 hrs by plate reader analysis; assay type: functional, organism-based; conditions: dose 0.125 µg/ml
Pichia kudriavzevii [13] = assay: Antifungal activity against Candida krusei 4946 assessed as inhibition of fungal growth at 0.125 ug/ml incubated for 24 hrs by plate reader analysis; assay type: functional, organism-based; conditions: dose 0.125 µg/ml
Candida tropicalis [14] = assay: Antifungal activity against Candida tropicalis 2718 assessed as inhibition of fungal growth at 32 ug/ml incubated for 24 hrs by plate reader analysis; assay type: functional, organism-based; conditions: dose 32.0 µg/ml
[15] = Hemolytic activity in rabbit RBC assessed as hemolysis at 4 ug/ml incubated for 1 hrs by absorbance based assay relative to control; assay type: toxicity, cell-based, Oryctolagus cuniculus, Erythrocyte; conditions: rabbit red blood cells, at 4 µg/mL, read-out: Activity
Cytochrome P450 1A2 = molecular target: T1, Cytochrome P450 1A2 (Homo sapiens, UniProt P05177); assay: Inhibition of CYP1A2 in human liver microsomes using phenacetin as substrate in presence of NADPH by LC-MS/MS analysis
T1 sequence (P05177 whole entry): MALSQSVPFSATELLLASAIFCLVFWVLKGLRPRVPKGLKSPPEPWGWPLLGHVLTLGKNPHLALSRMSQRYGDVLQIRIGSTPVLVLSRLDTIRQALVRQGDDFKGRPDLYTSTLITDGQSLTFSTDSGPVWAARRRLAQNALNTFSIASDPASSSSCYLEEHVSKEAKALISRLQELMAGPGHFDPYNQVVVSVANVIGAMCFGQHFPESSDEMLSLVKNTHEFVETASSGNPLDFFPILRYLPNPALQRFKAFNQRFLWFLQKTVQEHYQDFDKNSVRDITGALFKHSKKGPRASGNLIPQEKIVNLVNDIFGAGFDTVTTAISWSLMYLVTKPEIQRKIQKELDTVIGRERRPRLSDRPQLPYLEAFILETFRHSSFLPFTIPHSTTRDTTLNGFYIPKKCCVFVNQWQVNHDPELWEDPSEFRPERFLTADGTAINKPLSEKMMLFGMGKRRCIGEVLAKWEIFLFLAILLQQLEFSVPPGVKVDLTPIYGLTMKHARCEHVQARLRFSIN

Candida albicans [16] = assay: Antifungal activity against Candida albicans SC5314 infected in ICR mouse model assessed as fungal burden in kidney at 1 mg/kg/day, po pre-infected with fungi for 2 hrs followed by compound administration and measured after 48 hrs (reference value: 3.89 Log10CFU/g); assay type: functional
Candida albicans [17] = assay: Antifungal activity against Candida albicans SC5314 infected in ICR mouse model assessed as median survival time at 1 mg/kg/day, po pre-infected with fungi for 2 hrs followed by compound administration and measured after 48 hrs (reference value: 3.5 days); assay type: functional
Cytochrome P450 2C9 = Cytochrome P450 2C9 (Homo sapiens, UniProt P11712)
Cytochrome P450 2C19 = Cytochrome P450 2C19 (Homo sapiens, UniProt P33261)
Cytochrome P450 2D6 = Cytochrome P450 2D6 (Homo sapiens, UniProt P10635)
Cytochrome P450 3A4 = Cytochrome P450 3A4 (Homo sapiens, UniProt P08684)
Erythrocyte = assay: Hemolytic activity in rabbit RBC assessed as hemolysis at 64 ug/ml incubated for 1 hrs by absorbance based assay; assay type: toxicity, cell-based, Oryctolagus cuniculus; conditions: dose 64 µg/ml
[18] = molecular target: Lanosterol 14-alpha demethylase (Candida albicans (strain SC5314 / ATCC MYA-2876) (Yeast), UniProt P10613); assay: Inhibition of CYP51 in Candida albicans SC5314 assessed as ergosterol level at 0.5 ug/ml incubated for 8 hrs by GC-MS analysis (reference value: 79.31%); set-up: scale not given: the % may be the effect or the level left; conditions: at 0.5 µg/mL
Cell membrane = assay: Disruption of cell membrane integrity in Candida albicans SC5314 assessed as increase in increase in red fluorescence at 0.5 ug/ml incubated for 8 hrs by PI staining based fluorescence microscopic analysis; conditions: dose 0.5 µg/ml

Sequence of Cytochrome P450 2D6 (P10635 whole entry): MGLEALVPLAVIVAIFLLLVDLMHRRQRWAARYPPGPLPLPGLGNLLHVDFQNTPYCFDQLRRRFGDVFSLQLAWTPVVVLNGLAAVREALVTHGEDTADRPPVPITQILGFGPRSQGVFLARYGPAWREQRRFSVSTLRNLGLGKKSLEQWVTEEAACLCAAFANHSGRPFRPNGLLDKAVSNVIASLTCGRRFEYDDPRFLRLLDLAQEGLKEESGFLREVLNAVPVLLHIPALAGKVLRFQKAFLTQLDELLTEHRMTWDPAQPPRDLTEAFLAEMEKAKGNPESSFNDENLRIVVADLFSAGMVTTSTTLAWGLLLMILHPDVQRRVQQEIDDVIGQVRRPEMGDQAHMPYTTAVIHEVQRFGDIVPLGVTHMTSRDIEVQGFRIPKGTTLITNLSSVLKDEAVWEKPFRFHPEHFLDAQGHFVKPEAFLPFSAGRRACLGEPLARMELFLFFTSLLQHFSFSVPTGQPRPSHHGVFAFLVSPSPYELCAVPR
Sequence of Cytochrome P450 2C19 (P33261 whole entry): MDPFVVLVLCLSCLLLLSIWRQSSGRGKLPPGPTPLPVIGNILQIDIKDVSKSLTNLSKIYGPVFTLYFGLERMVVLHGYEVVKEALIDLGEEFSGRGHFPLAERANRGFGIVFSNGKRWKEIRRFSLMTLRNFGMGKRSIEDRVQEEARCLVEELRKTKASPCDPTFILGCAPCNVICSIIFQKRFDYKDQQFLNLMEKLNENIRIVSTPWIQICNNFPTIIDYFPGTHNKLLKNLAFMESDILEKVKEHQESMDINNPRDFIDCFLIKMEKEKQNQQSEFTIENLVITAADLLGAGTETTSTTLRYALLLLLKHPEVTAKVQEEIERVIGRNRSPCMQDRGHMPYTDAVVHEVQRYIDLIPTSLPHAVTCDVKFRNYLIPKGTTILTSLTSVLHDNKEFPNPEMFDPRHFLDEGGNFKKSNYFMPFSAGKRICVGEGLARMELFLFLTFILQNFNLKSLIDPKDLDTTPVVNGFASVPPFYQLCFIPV
Sequence of Cytochrome P450 3A4 (P08684 whole entry): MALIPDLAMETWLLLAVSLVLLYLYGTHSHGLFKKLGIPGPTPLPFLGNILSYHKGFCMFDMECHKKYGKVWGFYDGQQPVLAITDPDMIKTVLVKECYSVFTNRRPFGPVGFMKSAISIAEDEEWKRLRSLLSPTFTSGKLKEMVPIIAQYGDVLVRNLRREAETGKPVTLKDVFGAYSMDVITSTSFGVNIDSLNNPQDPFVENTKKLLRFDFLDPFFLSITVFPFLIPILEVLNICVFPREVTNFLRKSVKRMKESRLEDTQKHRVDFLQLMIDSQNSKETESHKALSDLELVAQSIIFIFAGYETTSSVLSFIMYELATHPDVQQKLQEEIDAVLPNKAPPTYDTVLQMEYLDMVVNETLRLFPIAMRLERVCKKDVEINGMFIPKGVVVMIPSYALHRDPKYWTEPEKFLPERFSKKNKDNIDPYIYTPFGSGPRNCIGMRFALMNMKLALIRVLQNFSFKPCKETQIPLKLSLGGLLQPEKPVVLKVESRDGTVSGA
Sequence of Cytochrome P450 2C9 (P11712 whole entry): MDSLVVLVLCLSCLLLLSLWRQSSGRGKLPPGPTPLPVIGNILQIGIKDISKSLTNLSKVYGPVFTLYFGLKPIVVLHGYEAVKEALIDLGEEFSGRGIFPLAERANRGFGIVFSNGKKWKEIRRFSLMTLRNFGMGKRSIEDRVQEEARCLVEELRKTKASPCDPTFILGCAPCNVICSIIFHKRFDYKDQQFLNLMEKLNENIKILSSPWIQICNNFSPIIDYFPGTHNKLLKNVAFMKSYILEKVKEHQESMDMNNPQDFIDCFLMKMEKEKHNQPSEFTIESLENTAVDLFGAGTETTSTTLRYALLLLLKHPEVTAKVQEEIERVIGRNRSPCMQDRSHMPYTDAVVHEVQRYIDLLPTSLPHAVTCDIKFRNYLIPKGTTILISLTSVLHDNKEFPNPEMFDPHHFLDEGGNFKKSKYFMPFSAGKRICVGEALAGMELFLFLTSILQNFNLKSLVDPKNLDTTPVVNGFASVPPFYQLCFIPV
Sequence of Lanosterol 14-alpha demethylase (P10613 whole entry): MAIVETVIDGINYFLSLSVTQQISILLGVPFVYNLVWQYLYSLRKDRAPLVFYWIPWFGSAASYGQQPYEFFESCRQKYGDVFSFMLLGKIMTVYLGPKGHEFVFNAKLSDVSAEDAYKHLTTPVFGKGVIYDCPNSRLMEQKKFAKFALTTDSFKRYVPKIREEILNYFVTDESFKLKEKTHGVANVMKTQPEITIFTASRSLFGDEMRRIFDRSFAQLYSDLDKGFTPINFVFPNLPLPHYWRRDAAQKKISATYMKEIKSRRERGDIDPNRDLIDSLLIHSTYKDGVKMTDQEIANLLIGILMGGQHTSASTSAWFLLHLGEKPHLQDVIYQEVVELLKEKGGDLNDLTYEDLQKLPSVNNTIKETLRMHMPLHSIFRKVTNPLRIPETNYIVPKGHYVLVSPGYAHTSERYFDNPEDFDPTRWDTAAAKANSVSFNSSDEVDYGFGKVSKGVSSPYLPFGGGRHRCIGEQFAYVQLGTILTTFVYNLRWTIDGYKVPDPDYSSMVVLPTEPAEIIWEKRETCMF

Compound | MIC50 (Candida albicans [1]) | MIC50 (Candida parapsilosis) | MIC50 (Candida tropicalis [2]) | MIC50 (Pichia kudriavzevii [3]) | MIC50 (Nakaseomyces glabratus) | MIC50 (Cryptococcus neoformans [4]) | MIC50 (Aspergillus fumigatus) | MIC50 ([Candida] auris [5]) | MIC50 ([Candida] auris [6]) | MIC50 ([Candida] auris [7]) | MIC50 ([Candida] auris [8]) | MIC50 ([Candida] auris [9]) | MIC50 ([Candida] auris [10]) | Activity (Candida albicans [11]) | Activity (Cryptococcus neoformans [12]) | Activity (Candida tropicalis [14]) | Activity (Candida albicans [16]) | other results
C[C@@H](n1ccc2cc(Cl)ccc2c1=O)[C@](O)(Cn1cncn1)c1ccc(F)cc1F | < 0.008 µg/mL | < 0.008 µg/mL | < 0.008 µg/mL | 0.063 µg/mL (≈ 0.146 µM) | < 0.008 µg/mL | < 0.008 µg/mL | 0.25 µg/mL (≈ 0.58 µM) | 0.25 µg/mL (≈ 0.58 µM) | 0.25 µg/mL (≈ 0.58 µM) | 0.25 µg/mL (≈ 0.58 µM) | 0.25 µg/mL (≈ 0.58 µM) | 0.5 µg/mL (≈ 1.16 µM) | 0.5 µg/mL (≈ 1.16 µM) | Active | Active |  |  | Activity (Pichia kudriavzevii [13]): Active
C[C@@H](n1ncc2cc(Cl)ccc2c1=O)[C@](O)(Cn1cnnn1)c1ccc(F)cc1F | < 0.008 µg/mL | 0.063 µg/mL (≈ 0.146 µM) | < 0.008 µg/mL | 0.5 µg/mL (≈ 1.16 µM) | < 0.008 µg/mL | 0.063 µg/mL (≈ 0.146 µM) | 8 µg/mL (≈ 18.5 µM) | 16 µg/mL (≈ 37 µM) | 32 µg/mL (≈ 73.9 µM) | 8 µg/mL (≈ 18.5 µM) | 4 µg/mL (≈ 9.24 µM) | 16 µg/mL (≈ 37 µM) | 32 µg/mL (≈ 73.9 µM) |  |  | Active |  | 
C[C@@H]1[C@H](O)[C@@H](C)/C=C/C=C/C=C/C=C/C=C/C=C/C=C/[C@H](O[C@@H]2O[C@H](C)[C@@H](O)[C@H](N)[C@@H]2O)C[C@@H]2O[C@](O)(C[C@@H](O)C[C@@H](O)[C@H](O)CC[C@@H](O)C[C@@H](O)CC(=O)O[C@H]1C)C[C@H](O)[C@H]2C(=O)O [AMPHOTERICIN B] |  |  |  |  |  |  |  | 2 µg/mL (≈ 2.16 µM) | 2 µg/mL (≈ 2.16 µM) | 4 µg/mL (≈ 4.33 µM) | 2 µg/mL (≈ 2.16 µM) | 2 µg/mL (≈ 2.16 µM) | 4 µg/mL (≈ 4.33 µM) |  |  |  |  | hemolysis at 1 h, 4 ug/ml [15]: > 50%
C[C@@H](n1cnc2cc(Cl)ccc2c1=O)[C@](O)(Cn1cncn1)c1ccc(F)cc1F [ALBACONAZOLE] | < 0.008 µg/mL | < 0.008 µg/mL | < 0.008 µg/mL | 0.125 µg/mL (≈ 0.289 µM) | < 0.008 µg/mL | < 0.008 µg/mL | 0.25 µg/mL (≈ 0.579 µM) | 0.5 µg/mL (≈ 1.16 µM) | 0.5 µg/mL (≈ 1.16 µM) | 0.5 µg/mL (≈ 1.16 µM) | 0.25 µg/mL (≈ 0.579 µM) | 0.5 µg/mL (≈ 1.16 µM) | 0.5 µg/mL (≈ 1.16 µM) | Active |  | Active | 3.54 log10CFU/g | IC50 (Cytochrome P450 1A2): 60.3 µM; MST (Candida albicans [17]): 3.5 days; IC50 (Cytochrome P450 2C9): 10.4 µM; IC50 (Cytochrome P450 2C19): 13 µM; IC50 (Cytochrome P450 2D6): 31.7 µM; IC50 (Cytochrome P450 3A4): 0.04 µM
OC(Cn1cncn1)(Cn1cncn1)c1ccc(F)cc1F [FLUCONAZOLE] | 0.125 µg/mL (≈ 0.408 µM) | 1 µg/mL (≈ 3.27 µM) | < 0.125 µg/mL | 8 µg/mL (≈ 26.1 µM) | 0.5 µg/mL (≈ 1.63 µM) | 8 µg/mL (≈ 26.1 µM) | > 64 µg/mL | > 64 µg/mL | > 64 µg/mL | > 64 µg/mL | > 64 µg/mL | > 64 µg/mL | > 64 µg/mL |  |  |  | 2.41 log10CFU/g | Activity (Erythrocyte): Non-Toxic; Activity [18]: 10.61%; Activity (Cell membrane): Active
O[C@@](Cn1cnnn1)(c1ccc(F)cc1F)C(F)(F)c1ccc(-c2ccc(OCC(F)(F)F)cc2)cn1 [OTESECONAZOLE] | < 0.008 µg/mL | < 0.008 µg/mL | < 0.008 µg/mL | 0.5 µg/mL (≈ 0.948 µM) | < 0.008 µg/mL | < 0.008 µg/mL | > 64 µg/mL | 4 µg/mL (≈ 7.58 µM) | 8 µg/mL (≈ 15.2 µM) | 4 µg/mL (≈ 7.58 µM) | 1 µg/mL (≈ 1.9 µM) | 8 µg/mL (≈ 15.2 µM) | 8 µg/mL (≈ 15.2 µM) | Active | Active |  |  | 
